Reference: ChEMBL document CHEMBL1142172, “Curing Mycobacterium ulcerans infection in mice with a combination of rifampin-streptomycin or rifampin-amikacin” (2007)

Legend:
Mycobacterium ulcerans [1] = assay: Antimycobacterial activity in Mycobacterium ulcerans Cu001 infected BALB/c mouse assessed as mean number of CFU per foot-pad at 10 mg/kg, sc after 2 weeks; format: functional; settings: route subcutaneous
Mycobacterium ulcerans [2] = assay: Antimycobacterial activity in Mycobacterium ulcerans Cu001 infected BALB/c mouse assessed as mean number of CFU per foot-pad at […], sc after 2 weeks; format: functional

CO[C@H]1/C=C/O[C@@]2(C)Oc3c(C)c(O)c4c(O)c(c(/C=N/N5CCN(C)CC5)c(O)c4c3C2=O)NC(=O)/C(C)=C\C=C\[C@H](C)[C@H](O)[C@@H](C)[C@@H](O)[C@@H](C)[C@H](OC(C)=O)[C@@H]1C [RIFAMPIN]
Log10 cfu (Mycobacterium ulcerans [1]): 4.13

CN[C@@H]1[C@H](O[C@H]2[C@H](O[C@H]3[C@H](O)[C@@H](O)[C@H](N=C(N)N)[C@@H](O)[C@@H]3N=C(N)N)O[C@@H](C)[C@]2(O)C=O)O[C@@H](CO)[C@H](O)[C@H]1O [STREPTOMYCIN]
Log10 cfu (Mycobacterium ulcerans [2]): 4.13

NCC[C@H](O)C(=O)N[C@@H]1C[C@H](N)[C@@H](O[C@H]2O[C@H](CN)[C@@H](O)[C@H](O)[C@H]2O)[C@H](O)[C@H]1O[C@H]1O[C@H](CO)[C@@H](O)[C@H](N)[C@H]1O [AMIKACIN]
Log10 cfu (Mycobacterium ulcerans [2]): 3.92
